Source: publication PMC6687188, “Novel lactate dehydrogenase inhibitors with in vivo efficacy against Cryptosporidium parvum” (PLoS Pathogens, 2019)
Read-outs that look alike come from different tables or passages of the source. Starred links: 1 amine or outer side, 2 acyl side, 3 side chain; linkers in the order of their positions; H or OH if unused. Positions of bridges follow the written chain, without caps; N, C: chain ends. Non-standard residues stand in square brackets, D forms with d. Residues, ends and D or L forms follow the SMILES beside them. Chains are numbered I, II in the order given. Actinocin(1to9) = Cc1c2oc3c(C)ccc(C(=O)[*:2])c3nc-2c(C(=O)[*:1])c(N)c1=O; NMeV = CN[C@H](C(=O)O)C(C)C; Sar = CNCC(=O)O

Target: recombinant CpLDH protein (Cryptosporidium parvum, UniProt Q9GT92, F198L/K295E/R251K)

| Structure (SMILES) | MEAN CpLDH INHIBITION (%) | MEAN CpLDH INHIBITION (%) (20 μM compound, 10 mM pyruvate, 1 mM NADH, values below 0 = augmenters) |
| --- | --- | --- |
| COC(=O)C(=O)C(C(=O)Nc1cccc(C)c1C)C1Sc2ccccc2NC1=O (centres unmarked) [NSC635833] | -26.59 | – |
| CCCN(CCC)C(=S)Sc1nc(C)nc(N2CCN(c3nc(C)nc(SC(=S)N(CCC)CCC)c3[N+](=O)[O-])CC2)c1[N+](=O)[O-] [NSC675593] | -141.86 | – |
| Cc1cc(Cl)cc2c1NC(=O)C2(O)C(C(=O)c1ccccc1)c1ccccc1 (centres unmarked) [NSC635435] | -63.48 | – |
| COc1ccc2cccc(C(=N)c3ccc(C)c4c3CCC4)c2c1 [NSC625590] | -11.59 | – |
| COc1cc(C[C@H]2c3cc(OC)c(OC)cc3CCN2C)c(Oc2cc3c(cc2OC)-c2c(OC)c(OC)cc4c2[C@H](C3)N(C)CC4)cc1OC [NSC68075] | -148.49 | – |
| CCCCCCC1CC(=O)C1(Cl)Cl (centres unmarked) [NSC666526] | -2.48 | – |
| COc1cc2c3cc1Oc1c(OC)c(OC)cc4c1[C@H](Cc1ccc(cc1)Oc1cc(ccc1O)C[C@H]3N(C)CC2)N(C)CC4 [NSC93135] | -27.33 | – |
| CC[C@H](C)[C@@H]1NC(=O)[C@@H](NC(=O)c2c3nc4c(C(=O)N[C@@H]5C(=O)N[C@@H](C(C)C)C(=O)N6CCC[C@H]6C(=O)N(C)CC(=O)N(C)[C@@H](C(C)C)C(=O)O[C@@H]5C)ccc(C)c4oc-3c(C)c(=O)c2N)[C@@H](C)OC(=O)[C@H](C(C)C)N(C)C(=O)CN(C)C(=O)[C@@H]2CCCN2C1=O [NSC18268] (I: TIP[Sar][NMeV] / II: TVP[Sar][NMeV]; ester I:1-I:C, II:1-II:C; linker I:N-II:N via Actinocin(1to9)) | -2.01 | – |
| COc1ccc(Cc2nc3ccccc3s2)cc1OC [NSC632233] | -7.14 | – |
| Nc1nc(N)c(-c2cccc(C(F)(F)F)c2)c(Cc2cccc(C(F)(F)F)c2)n1 [NSC71669] | -53.065 | – |
| C/C(=N\NC(=S)N1CCC1)c1ccccn1 [NSC319726] | – | -58.85 |
| c1ccc2c(c1)nnn1c3cnccc3nc21 [NSC128734] | -52.88 | – |
| CCc1cccc(CC)c1NC(=O)C(C#N)C1=C(Cl)C(=O)c2ccccc2C1=O (centres unmarked) [NSC634503] | -5.79 | – |
| CC1=CC(=C(c2ccc(N)cc2)c2ccc(N)cc2)C=CC1=N.Cl [NSC93739] | -24.21 | – |
| CCC(=O)OC1CCn2c1nc1c2C(=O)C(C)=C(N2CC2)C1=O (centres unmarked) [NSC651079] | -28.42 | – |
| Cc1ccc(S(=O)(=O)SC/C=C/CSS(=O)(=O)c2ccc(C)cc2)cc1 [NSC624158] | -8.09 | – |
| O=C([O][Hg][CH2]C1COC([CH2][Hg][O]C(=O)c2ccccc2)CO1)c1ccccc1 (centres unmarked) [NSC30916] | -5.35 | – |
| COc1ccc2oc(-c3ccncc3)cc(=O)c2c1 [NSC54650] | -73.33 | – |
| Nc1ccccc1N [NSC5354] | 0 | – |

| Structure (SMILES) | MEAN CpLDH INHIBITION (%) | MEAN CpLDH INHIBITION (%) (20 μM compound, 10 mM pyruvate, 1 mM NADH, values below 0 = augmenters) |
| --- | --- | --- |
| CCOC(=O)CCn1ncc(Cl)c(Cl)c1=O [NSC634471] | -23.23 | – |
| O=C1C=C(Nc2ccccc2C(=O)CC(=O)C(=O)Nc2ccc(Cl)c(Cl)c2)c2ccccc2C1=O [NSC641250] | -16.86 | – |
| C[C@H](CN1CC(=O)NC(=O)C1)N1CC(=O)NC(=O)C1 [NSC169779] | -13.00 | – |
| O=C(Nc1cccc(C(F)(F)F)c1)C(=O)C(C(=O)c1ccc(Cl)c(Cl)c1)C1OC(=O)c2ccccc21 (centres unmarked) [NSC644794] | -17.50 | – |
| O=C1Nc2c(Cl)cc(Cl)cc2/C1=N/N=C/c1ccco1 [NSC329279] | -39.07 | – |
| CCCCCc1cc(/C=C2/N=C(c3ccc[nH]3)C=C2OC)[nH]c1C [NSC47147] | -37.67 | – |
| O=c1ncccn1C1OC(CO)C(O)C1F (centres unmarked) [NSC625355] | -50.28 | – |
| COc1ccc2nc(NC(=O)C(=O)CC(=O)c3ccc(Cl)cc3)sc2c1 [NSC623059] | -31.35 | – |
| COC(=O)c1ccccc1OCc1cc(=O)oc2ccc(C)cc12 [NSC623637] | -23.29 | – |
| O=C1c2ccccc2-c2c1c1ccccc1c(=O)n2Cc1ccccc1 [NSC337612] | -26.65 | – |
| Cc1ccc(/C=C2\CNC/C(=C\c3ccc(C)cc3)C2=O)cc1.Cl [NSC632839] | -15.78 | – |
| C=C(C)[C@@H]1CC[C@]2(C)CC[C@]3(C)[C@H](CC[C@@H]4[C@@]5(C)CC[C@H](O)C(C)(C)[C@@H]5CC[C@]43C)[C@@H]12 [NSC90487] | -42.73 | – |
| O=C1CC[C@H](NC(=O)Cc2ccccc2)C(=O)N1 [NSC620261] | -132.95 | – |
| CN(CCc1ccccn1)c1ccc2c(c1)C(=O)c1ccccc1-2 [NSC24048] | -65.48 | – |
| O=C(N=Nc1c(O)[nH]c2ccccc12)c1ccccc1O [NSC635404] | -38.57 | – |
| O=C1C2=Nc3ccccc3C(O)N2c2ccccc21 (centres unmarked) [NSC292147] | -13.84 | – |
| [Cl][Pt+2][Cl].[NH-]C1CCCCC1[NH-] (centres unmarked) [NSC265459] | -11.78 | – |
| CC1=CC(O)C(O)C2(C)C1CC1OC(=O)C(O)C3C(C)C(O)C4(O)OCC13C42 (centres unmarked) [NSC14974] | 0.167 | – |
| O=C1c2ccccc2C(=O)c2c(O)c(NCCNCCO)cc(O)c21 [NSC316157] | -4.71 | – |
